Laboratory results taken from US9149543B2, “Methods and models for rapid, widespread delivery of genetic material to the CNS using non-viral, cationic lipid-mediated vectors” (The Trustees of the University of Pennsylvania, priority 2005, dated 2015).

Assay: DNA protection assay of DMDK lipoplex against DNase and human CSF (agarose gel)
Type: in vitro ADME
Conditions: lipoplex incubated with DNAses or human CSF in vitro
Protocol: Naked DNA and DMDK/DNA complexes were incubated at 37° C. for thirty minutes with 1 μl of RQ1 RNase-Free DNase and 10× Reaction Buffer (Promega, Madison, Wis.). One unit of RQ1 RNase-Free DNase (1 unit/μl) is defined as the amount required to completely degrade 1 μg of lambda DNA in 10 minutes at 37° C. in 50 μl of a buffered solution. After 30 minutes of incubation, aliquots were removed and used for transfection or phenol/chloroform extraction.
Incubation and transfection were also carried out in human CSF, obtained under an approved IRB protocol at the University of Pennsylvania, wherein CSF was collected under sterile conditions at the Hospital of the University of Pennsylvania during the normal course of pre-operative spinal anesthetic administration.
An equal volume of phenol/chlororform/isoamyl alcohol was added to the DNA solution. This solution was vortexed for 10 seconds, briefly centrifuged, and the aqueous layer removed and placed in a new tube. 1/10 volume of 3M sodium acetate was added and then vortexed. Next, 2.5 volumes of ice-cold 100% EtOH was added, vortexed and placed in a −70° C. freezer for 15 minutes. The solution was then microcentrifuged for 5 minutes at maximum speed, and the supernatant was removed. 1 ml of 70% EtOH (room temperature) was added, and centrifuged for 5 minutes at maximum speed. The supernatant was removed and the pellet dried. […]

## CCCCCCCCCCCCCCC(=O)C(=O)CCCCCCCCCCCCCC [DMDK, Dimyristyl Diketone]
  protection of plasmid DNA from degradation from DNAses or from human cerebral spinal fluid: effectively protect plasmid DNA from degradation
